# ± gives the expanded uncertainty stated by the source.
# Details: 313.15 K; Liquid
row,vapor or sublimation pressure [kPa],Structure (SMILES)
1,12.94 ± 0.057,"CC(C)CC(C)(C)C [2,2,4-trimethylpentane]"
2,12.31 ± 0.055,CCCCCCC [heptane]
3,0.898 ± 0.018,CCCCCO [pentan-1-ol]

# Source: the NIST ThermoML archive (doi:10.1016/j.fluid.2015.07.049)
